The source of these data is US7745446B2, “Pyrazolo[1,5-c]pyrimidines” (Bayer Schering Pharma Aktiengesellschaft, priority 2004, dated 2010).

One experiment relates to MCF7 cells. Briefly: Cellular proliferation/cytotoxicity assay (Alamar Blue), MCF7. The following applies: Homo sapiens, MCF7, 48 h, read-out: Anti-proliferative/cytotoxic activity: IC50 MCF7. Background: The colour change of resazurin is a common sign of viable cells or microbes.
Another experiment relates to MDA-MB-468 cells. Briefly: Cellular proliferation/cytotoxicity assay (Alamar Blue), MDA-MB-468. The settings on record: Homo sapiens, MDA-MB-468, 48 h, read-out: Anti-proliferative/cytotoxic activity: IC50 MDA468.
Another experiment deals with T1, PKA (Homo sapiens, UniProt P17612).
T1 construct: His; purchased PanVera, USA #R3791; host or cells: E. coli
Briefly: Biochemical PKA assay (flashplate). The following applies: 100 nM ATP; read-out: PKA inhibition: −log IC50 (converted). As to the method:
For the biochemical PKA assay the catalytic subunit of PKA is expressed in E. coli as a His-tagged human recombinant protein and purified accordingly (PanVera, USA; #R3791).
In order to study the kinase inhibition activity of the compounds according to the invention, a flashplate-based assay has been developed for the serine/threonine kinase, PKA. The assay is run in 96 well plates by incubating 1 ng/well His-PKA (PanVera, USA; #R3791), 0.5 μM/well PKA peptide (#12-394; Upstate, USA) as substrate, 10 μl of compound of invention (test compounds were dissolved as 10 mM solutions in dimethylsulfoxide (DMSO) and subsequently diluted) and 100 nM ATP (including ^33P-ATP) in 100 μl of reaction buffer ([…], pH7,5; 3 mM MgCl2; 3 mM MnCl2; 3 μM Na-Orthovanadat; 1 mM DTT) for 80 minutes at 22° C. The reactions are stopped by adding 100 μl stopping buffer (2% H3PO4 for 5 minutes) and are washed 3 times by using washing buffer (200 μl 1×PBS). Relying on the incorporation of ^33P into the peptide substrate, the detection is based on the adhesion of the phosphorylated peptide to the surface of scintillator-coated Flash plates (Perkin Elmer, USA; #SMP-103). This phosphorylation is measured by counting the plate for 60 sec. using a plate reader (Wallac Microbeta; Perkin Elmer, USA). By using this method the IC50 of the PKA inhibition is determined.

The target of a further experiment is T2, GST-ΔPH-Akt1 (Homo sapiens, UniProt P31749).
T2 construct: named GST-deltaPH-Akt1; 107-480aa; cloned in the pAcGl vector; GST (N); made in house; host or cells: SF9 insect cells (baculovirus vector pAcG1), co-expressed with PDK1
T2 sequence (P31749 107-480, stated change not applied): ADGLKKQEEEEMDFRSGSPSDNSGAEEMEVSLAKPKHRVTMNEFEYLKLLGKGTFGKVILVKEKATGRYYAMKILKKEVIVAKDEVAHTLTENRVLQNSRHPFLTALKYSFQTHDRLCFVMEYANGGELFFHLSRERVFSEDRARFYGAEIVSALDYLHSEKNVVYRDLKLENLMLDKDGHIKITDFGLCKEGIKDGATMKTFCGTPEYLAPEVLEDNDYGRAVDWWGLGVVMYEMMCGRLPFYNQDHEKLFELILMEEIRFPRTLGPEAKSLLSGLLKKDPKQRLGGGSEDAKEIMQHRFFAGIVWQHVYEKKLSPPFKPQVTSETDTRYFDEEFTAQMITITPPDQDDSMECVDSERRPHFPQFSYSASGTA
Briefly: Biochemical ΔPH Akt1 assay (flashplate, 33P incorporation into histone 2B). The settings on record: 100 nM ATP, histone 2B substrate; read-out: ΔPHAkt1 inhibition: IC50. The source says: For the biochemical assay ΔPHAkt1 is used devoid of its PH domain as a GST fusion protein (named GST-deltaPH-Akt1; 107-480aa; cloned in the pAcGl vector (BD Biosciences Pharmingen)), co-expressed with PDK1 in SF9 insect cells. The protein is purified using glutathion-affinity chromatography by standard protocols.
In order to study the inhibition of Akt according to the invention, a flashplate-based assay has been developed.
The Akt1 assay is a biochemical assay using Akt1 devoid of its PH domain and co-expressed with PDK1 in insect cells. The GST-ΔPH-Akt1 assay is run in 96 well plates by incubating 100 ng/well GST-ΔPH-Akt1, 100 ng/well histone 2B (Roche, #223514) as substrate, 10 μl of compound of invention (test compounds were dissolved as 10 mM solutions in dimethylsulfoxide (DMSO) and subsequently diluted) and 100 nM ATP (including ^33P-ATP) in 100 μl of reaction buffer ([…], pH7,5; 3 mM MgCl2; 3 mM MnCl2; 3 μM Na-Orthovanadat; 1 mM DTT; 1 μg/ml PEG8000) for 80 minutes at 30° C. The reactions are terminated by adding 100 μl stopping buffer (2% H3PO4 for 5 minutes) and are washed 3 times by using washing buffer (0.9% NaCl). Relying on the incorporation of ^33P into the protein substrate histone 2B, the detection is based on the adhesion of the phosphorylated protein to the surface of scintillator-coated flash plates (NEN, USA; #SMP-200). This phosphorylation is measured by counting the plate for 60 sec. using a plate reader (Wallac Microbeta; Perkin Elmer, USA).

Experimental for MCF7 cells: (§1) The anti-proliferative activity of the compounds as described herein, is evaluated using MCF7 and MDA-MB-468 (ATCC HTB-22 and HTB-132) cell lines and the Alamar Blue (Resazurin) cell viability assay (O'Brien et al. Eur J Biochem 267, 5421-5426, 2000). Resazurin is reduced to the fluorescent resorufin by cellular dehydrogenase activity, correlating with viable, proliferating cells. Test compounds are dissolved as 10 mM solutions in DMSO and subsequently diluted. MCF7 or MDA-MB-434 cells were seeded into 96 well flat bottom plates at a density of 10000 cells/well (MCF7) or 5000 cells/well (MDA-MB-468) in a volume of 200 μl/well. 24 hours after seeding, 1 μl each of the compound dilutions are added into each well of the 96 well plates. Each compound dilution is tested as at least as duplicates. Wells containing untreated control cells were filled with 200 μl DMEM containing 0.5% v:v DMSO. The cells are then incubated with the substances for 48 hours at 37° C. in a humidified atmosphere containing 5% carbon dioxide. To determine cell viability, 20 μl of a Resazurin solution (Sigma; 90 mg/l) are added. After 4 hours incubation at 37° C. the fluorescence is measured at an extinction of 544 nm and an emission of 590 nm (Wallac Victor2; Perkin Elmer, USA). For the calculation of the cell viability the emission value from untreated cells is set as 100% viability and the emission rates of treated cells are set in relation to the values of untreated cells. Viabilities are expressed as % values. The corresponding IC50 values of the compounds for cytotoxic activity are determined from the concentration-effect curves by means of non-linear regression. The analysis of the data is performed using a biostatistical program (GraphPad Prism, USA).
Experimental for MDA-MB-468 cells: as §1

Turning to `NCc1ccc(C(=O)Nc2ccc(Nc3nc(-c4cccc5c4oc4ccccc45)cc4ccnn34)cc2)cn1` [Example 29, 6-Aminomethyl-N-[4-(5-dibenzofuran-4-yl-pyrazolo[1,5-c]pyrimidin-7-ylamino)-phenyl]-nicotinamide], the IC50 in the experiment with MCF7 cells is ≤ 16.9 µM; in the experiment with MDA-MB-468 cells, ≤ 13.6 µM; at PKA, > 100 µM; at GST-ΔPH-Akt1, ≤ 1.75 µM.

As to `CNCc1ccc(C(=O)Nc2cccc(Nc3nc(-c4cccc5c4oc4ccccc45)cc4ccnn34)c2)cc1` [Example 32, N-[3-(5-Dibenzofuran-4-yl-pyrazolo[1,5-c]pyrimidin-7-ylamino)-phenyl]-4-methylaminomethyl-benzamide], the IC50 with MCF7 cells was ≤ 16.9 µM; with MDA-MB-468 cells, ≤ 13.6 µM; on PKA, 6.31 to 100 µM; on GST-ΔPH-Akt1 it was ≤ 1.75 µM.

On to `CNCc1ccc(C(=O)Nc2ccc(Nc3nc(-c4cccc5c4oc4ccccc45)cc4ccnn34)cc2)cc1` [Example 33, N-[4-(5-Dibenzofuran-4-yl-pyrazolo[1,5-c]pyrimidin-7-ylamino)-phenyl]-4-methylaminomethyl-benzamide], for which the IC50 with MCF7 cells is ≤ 16.9 µM; in the experiment on MDA-MB-468 cells, ≤ 13.6 µM; at PKA it was > 100 µM; on GST-ΔPH-Akt1, ≤ 1.75 µM.

On to `O=C(Nc1cccc(Nc2nc(-c3cccc4c3oc3ccccc34)cc3ccnn23)c1)c1ccc2c(c1)CNCC2` [Example 34, 1,2,3,4-Tetrahydro-isoquinoline-7-carboxylic acid [3-(5-dibenzofuran-4-yl-pyrazolo[1,5-c]pyrimidin-7-ylamino)-phenyl]-amide], for which the IC50 with MCF7 cells is ≤ 16.9 µM; in the experiment on MDA-MB-468 cells, ≤ 13.6 µM; at PKA, 6.31 to 100 µM; at GST-ΔPH-Akt1, ≤ 1.75 µM.

As to `O=C(Nc1ccc(Nc2nc(-c3cccc4c3oc3ccccc34)cc3ccnn23)cc1)c1ccc2c(c1)CNCC2` [Example 35, 1,2,3,4-Tetrahydro-isoquinoline-7-carboxylic acid [4-(5-dibenzofuran-4-yl-pyrazolo[1,5-c]pyrimidin-7-ylamino)-phenyl]-amide], the IC50 in the experiment on MCF7 cells was ≤ 16.9 µM; with MDA-MB-468 cells, ≤ 13.6 µM; at PKA it was > 100 µM; at GST-ΔPH-Akt1 it was ≤ 1.75 µM.

With `NCc1ccc(C(=O)Nc2ccc(Nc3nc(-c4cccc5c4oc4ccccc45)cc4ccnn34)cc2)o1` [Example 38, 5-Aminomethyl-furan-2-carboxylic acid [4-(5-dibenzofuran-4-yl-pyrazolo[1,5-c]pyrimidin-7-ylamino)-phenyl]-amide], the IC50 in the experiment on MCF7 cells was ≤ 16.9 µM; in the experiment with MDA-MB-468 cells, ≤ 13.6 µM; on PKA, > 100 µM; at GST-ΔPH-Akt1, ≤ 1.75 µM.

For the molecule `CC(C)(N)c1ccc(C(=O)Nc2ccc(Nc3nc(-c4cccc5c4oc4ccccc45)cc4ccnn34)cc2)cc1` [Example 39, 4-(1-Amino-1-methyl-ethyl)-N-[4-(5-dibenzofuran-4-yl-pyrazolo[1,5-c]pyrimidin-7-ylamino)-phenyl]-benzamide], the IC50 was ≤ 16.9 µM in the experiment on MCF7 cells, ≤ 13.6 µM with MDA-MB-468 cells, 6.31 to 100 µM at PKA and ≤ 1.75 µM at GST-ΔPH-Akt1.

As for `NCc1ccc(C(=O)Nc2ccc(Nc3nc(-c4ccc5cc(OCc6ccccc6)ccc5c4)cc4ccnn34)cc2)cc1` [Example 42, 4-Aminomethyl-N-{4-[5-(6-benzyloxy-naphthalen-2-yl)-pyrazolo[1,5-c]pyrimidin-7-ylamino]-phenyl}-benzamide], the IC50 in the experiment on MCF7 cells was ≤ 16.9 µM; with MDA-MB-468 cells, ≤ 13.6 µM; at PKA, > 100 µM; on GST-ΔPH-Akt1, ≤ 1.75 µM.

With `CCOc1ccc2cc(-c3cc4ccnn4c(Nc4ccc(NC(=O)c5ccc(CN)cc5)cc4)n3)ccc2c1` [Example 46, 4-Aminomethyl-N-{4-[5-(6-ethoxy-naphthalen-2-yl)-pyrazolo[1,5-c]pyrimidin-7-ylamino]-phenyl}-benzamide], the IC50 in the experiment with MCF7 cells was ≤ 16.9 µM; with MDA-MB-468 cells, ≤ 13.6 µM; on PKA it was > 100 µM; at GST-ΔPH-Akt1 it was ≤ 1.75 µM.

In the case of `COCCOc1ccc2cc(-c3cc4ccnn4c(Nc4ccc(NC(=O)c5ccc(CN)cc5)cc4)n3)ccc2c1` [Example 47, 4-Aminomethyl-N-(4-{5-[6-(2-methoxy-ethoxy)-naphthalen-2-yl]-pyrazolo[1,5-c]pyrimidin-7-ylamino}-phenyl)-benzamide], the IC50 in the experiment with MCF7 cells is ≤ 16.9 µM; with MDA-MB-468 cells it was ≤ 13.6 µM; on PKA it was > 100 µM; on GST-ΔPH-Akt1, ≤ 1.75 µM.

Take `NCc1cncc(C(=O)Nc2ccc(Nc3nc(-c4cccc5c4oc4ccccc45)cc4ccnn34)cc2)c1` [Example 52, 5-Aminomethyl-N-[4-(5-dibenzofuran-4-yl-pyrazolo[1,5-c]pyrimidin-7-ylamino)-phenyl]-nicotinamide]: the IC50 in the experiment on MCF7 cells is ≤ 16.9 µM; in the experiment on MDA-MB-468 cells it was ≤ 13.6 µM; at PKA, > 100 µM; on GST-ΔPH-Akt1, ≤ 1.75 µM.

Take `NCc1ccnc(C(=O)Nc2ccc(Nc3nc(-c4cccc5c4oc4ccccc45)cc4ccnn34)cc2)c1` [Example 53, 4-Aminomethyl-pyridine-2-carboxylic acid [4-(5-dibenzofuran-4-yl-pyrazolo[1,5-c]pyrimidin-7-ylamino)-phenyl]-amide]: the IC50 was ≤ 16.9 µM with MCF7 cells, ≤ 13.6 µM in the experiment with MDA-MB-468 cells, > 100 µM at PKA and ≤ 1.75 µM at GST-ΔPH-Akt1.

As for `COc1ccc(-c2ccc(-c3cc4ccnn4c(Nc4ccc(NC(=O)c5ccc(CN)cc5)cc4)n3)cc2)cc1` [Example 55, 4-Aminomethyl-N-{4-[5-(4′-methoxy-biphenyl-4-yl)-pyrazolo[1,5-c]pyrimidin-7-ylamino]-phenyl}-benzamide], the IC50 in the experiment on MCF7 cells was ≤ 16.9 µM; in the experiment on MDA-MB-468 cells it was ≤ 13.6 µM; on PKA, > 100 µM; at GST-ΔPH-Akt1 it was ≤ 1.75 µM.

In the case of `COc1ccccc1-c1ccc(-c2cc3ccnn3c(Nc3ccc(NC(=O)c4ccc(CN)cc4)cc3)n2)cc1` [Example 56, 4-Aminomethyl-N-{4-[5-(2′-methoxy-biphenyl-4-yl)-pyrazolo[1,5-c]pyrimidin-7-ylamino]-phenyl}-benzamide], the IC50 with MCF7 cells is ≤ 16.9 µM; with MDA-MB-468 cells it was ≤ 13.6 µM; on PKA, 6.31 to 100 µM; on GST-ΔPH-Akt1 it was ≤ 1.75 µM.

On to `O=C(Nc1ccc(Nc2nc(-c3cccc4c3oc3ccccc34)cc3ccnn23)cc1)c1ccc(CNCCO)cc1` [Example 57, N-[4-(5-Dibenzofuran-4-yl-pyrazolo[1,5-c]pyrimidin-7-ylamino)-phenyl]-4-[(2-hydroxy-ethylamino)-methyl]-benzamide], for which the IC50 is ≤ 16.9 µM with MCF7 cells, ≤ 13.6 µM in the experiment on MDA-MB-468 cells, > 100 µM on PKA and ≤ 1.75 µM at GST-ΔPH-Akt1.

As for `O=C(Nc1ccc(Nc2nc(-c3cccc4c3oc3ccccc34)cc3ccnn23)cc1)c1ccc2c(c1)CCNC2` [Example 58, 1,2,3,4-Tetrahydro-isoquinoline-6-carboxylic acid [4-(5-dibenzofuran-4-yl-pyrazolo[1,5-c]pyrimidin-7-ylamino)-phenyl]-amide], the IC50 is ≤ 16.9 µM in the experiment on MCF7 cells, ≤ 13.6 µM in the experiment on MDA-MB-468 cells, > 100 µM on PKA and ≤ 1.75 µM at GST-ΔPH-Akt1.
